# In article PMC5355295, “A new semisynthetic cardenolide analog 3β-[2-(1-amantadine)- 1-on-ethylamine]-digitoxigenin (AMANTADIG) affects G2/M cell cycle arrest and miRNA expression profiles and enhances proapoptotic survivin-2B expression in renal cell carcinoma cell lines” (Oncotarget, 2017):
# pIC50: −log10 of the molar value.
# Target: T1, Na+/K+-ATPase α1,2,3 subunit
# T1 construct: gene ATP1A1; Na+/K+-ATPase α1,2,3 subunit of porcine cortex (Sigma)
# Assay: ATPase activity, malachite green Pi release, […] min pre-incubation
# Type: biochemical, Sus scrofa
compound,measurement,value
CO[C@H]1[C@@H](O)C[C@H](O[C@H]2[C@@H](O)C[C@H](O[C@H]3[C@@H](O)C[C@H](O[C@H]4CC[C@@]5(C)[C@H](CC[C@@H]6[C@@H]5C[C@@H](O)[C@]5(C)[C@@H](C7=CC(=O)OC7)CC[C@]65O)C4)O[C@@H]3C)O[C@@H]2C)O[C@@H]1C [β-methyldigoxin],pIC50,4.78
